Test results taken from PubChem BioAssay (NCI).
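Compound exposure: 48 hours, 5 concentrations, 96-well plates. TGI denotes the concentration required for complete inhibition of growth.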

Experiments:
Assay in all cases: NCI-60 cell line screen, 48 h
MALME-3M melanoma = test system: MALME-3M melanoma
HCT-116 colon = test system: HCT-116 colon
UO-31 renal = test system: UO-31 renal
K-562 leukemia = test system: K-562 leukemia
SNB-19 CNS = test system: SNB-19 CNS
TK-10 renal = test system: TK-10 renal
ACHN renal = test system: ACHN renal
IGROV1 ovarian = test system: IGROV1 ovarian
CCRF-CEM leukemia = test system: CCRF-CEM leukemia
RXF 393 renal = test system: RXF 393 renal
UACC-257 melanoma = test system: UACC-257 melanoma
HCT-15 colon = test system: HCT-15 colon
SK-OV-3 ovarian = test system: SK-OV-3 ovarian
NCI/ADR-RES ovarian = test system: NCI/ADR-RES ovarian
NCI-H23 lung = test system: NCI-H23 lung
NCI-H522 lung = test system: NCI-H522 lung
COLO 205 colon = test system: COLO 205 colon
CAKI-1 renal = test system: CAKI-1 renal
SK-MEL-5 melanoma = test system: SK-MEL-5 melanoma
OVCAR-3 ovarian = test system: OVCAR-3 ovarian
PC-3 prostate = test system: PC-3 prostate
SNB-75 CNS = test system: SNB-75 CNS
M14 melanoma = test system: M14 melanoma
HT29 colon = test system: HT29 colon
SK-MEL-28 melanoma = test system: SK-MEL-28 melanoma
OVCAR-8 ovarian = test system: OVCAR-8 ovarian
SF-295 CNS = test system: SF-295 CNS
MDA-N = test system: MDA-N
EKVX NSCLC = test system: EKVX NSCLC
SW-620 colon = test system: SW-620 colon
MDA-MB-435 = test system: MDA-MB-435
SN12C renal = test system: SN12C renal
T-47D breast = test system: T-47D breast
HL-60(TB) leukemia = test system: HL-60(TB) leukemia
A498 renal = test system: A498 renal
786-0 renal = test system: 786-0 renal
OVCAR-4 ovarian = test system: OVCAR-4 ovarian
MOLT-4 leukemia = test system: MOLT-4 leukemia
A549 NSCLC = test system: A549 NSCLC
SK-MEL-2 melanoma = test system: SK-MEL-2 melanoma
HOP-92 NSCLC = test system: HOP-92 NSCLC
HOP-62 NSCLC = test system: HOP-62 NSCLC
U251 CNS = test system: U251 CNS
KM12 colon = test system: KM12 colon
MCF7 breast = test system: MCF7 breast
DU-145 prostate = test system: DU-145 prostate
MDA-MB-231 breast = test system: MDA-MB-231 breast
LOX IMVI melanoma = test system: LOX IMVI melanoma
SF-539 CNS = test system: SF-539 CNS
UACC-62 melanoma = test system: UACC-62 melanoma
HCC-2998 colon = test system: HCC-2998 colon
NCI-H226 lung = test system: NCI-H226 lung
RPMI-8226 leukemia = test system: RPMI-8226 leukemia
OVCAR-5 ovarian = test system: OVCAR-5 ovarian
BT-549 breast = test system: BT-549 breast
SR leukemia = test system: SR leukemia
NCI-H460 lung = test system: NCI-H460 lung
SF-268 CNS = test system: SF-268 CNS
HS 578T breast = test system: HS 578T breast

Measured: TGI

NC(N)=NC(N)=Nc1cnccn1
not listed: RPMI-8226 leukemia | OVCAR-5 ovarian | BT-549 breast | SR leukemia | NCI-H460 lung | SF-268 CNS | HS 578T breast
> 100 µM: all other assays above

CC(C)(C)OC(=O)NC(Cc1ccc(O)cn1)C(=O)O (stereo not given)
not listed: CCRF-CEM leukemia | SK-OV-3 ovarian | M14 melanoma | T-47D breast | SK-MEL-2 melanoma | UACC-62 melanoma
> 100 µM: all other assays above
